Here are results for 11 molecules from patent publication US20220062371A1, “LIGAND-DRUG-CONJUGATES AS SUBSTRATES FOR SELECTIVE CLEAVAGE BY THE EXOPEPTIDASE ACTIVITY OF CATHEPSIN B” (DEBIOPHARM RESEARCH & MANUFACTURING S.A., priority 2017, published 2022).

Where two headings read alike, the source gives them in different places. Positions of bridges follow the written chain, without caps; N, C: chain ends. Non-standard residues stand in square brackets, D forms with d. Residues, ends and D or L forms follow the SMILES beside them. Groups on a side chain read outwards from the residue. Chains are numbered I, II in the order given. *: point of attachment. DM1Mal(CH2)2CO = COc1cc2cc(c1Cl)N(C)C(=O)C[C@H](OC(=O)[C@H](C)N(C)C(=O)CCSC1CC(=O)N(CCC(=O)*)C1=O)[C@]1(C)O[C@H]1[C@H](C)[C@@H]1C[C@@](O)(NC(=O)O1)[C@H](OC)/C=C/C=C(\C)C2; Camptothecin(20S-OCO) = CC[C@@]1(OC(=O)*)C(=O)OCc2c1cc1n(c2=O)Cc2cc3ccccc3nc2-1; X1 = CC[C@@]1(O*)C(=O)OCc2c1cc1n(c2=O)Cc2cc3ccccc3nc2-1; X2 = CC(=O)N[C@@H](CSC1CC(=O)N(CCC(=O)*)C1=O)C(=O)O; Dolaproine = CO[C@@H]([C@@H]1CCCN1)[C@@H](C)C(=O)O; Dil = CC[C@H](C)[C@H](NC)[C@@H](CC(=O)O)OC; NMe2Val = CC(C)[C@@H](C(=O)*)N(C)C; PEG5 = NCCOCCOCCOCCOCCOCCC(=O)O; Cit = NC(=O)NCCC[C@H](N)C(=O)O; PEG4 = NCCOCCOCCOCCOCCC(=O)O; Dap = NC[C@H](N)C(=O)O; Sar = CNCC(=O)O

In this data set the target is T1, recombinant human Cathepsin B (Homo sapiens, UniProt P07858).
T1 construct: purchased R&D Systems (Bio-Techne AG) 953-CY-010
In words: Recombinant human Cathepsin B-induced cleavage (in vitro enzymatic cleavage assay, UHPLC-MS/MS). The format is biochemical. The settings on record: for half-life at 10 μM: human; for Ratio (T1/2 Compound/T1/2 Reference): reference Cys-MC-Val-Cit-PABC-MMAF; for cleavage rate compared to reference PABC compound (times faster): versus Cys-MC-Val-Cit-PABC-MMAF. As to the method: Cat B-induced cleavage of the compounds of the present invention was evaluated according to the in vitro enzymatic cleavage assay using recombinant human Cathepsin B and UHPLC-MS/MS analysis as described below.
Reference compounds Cys-MC-Val-Cit-PABC-MMAF and MMAF were used as positive controls.
The in vitro enzymatic assay was conducted at 37° C. with the test compounds at a concentration of 10 μM (2.5 μM when the test compound is an antibody-drug conjugate) in the presence of activated recombinant human Cathepsin B enzyme at 2 μg/mL in a 25 mM MES buffer pH 5.0. The enzymatic cleavage reaction was stopped for each defined time point by mixing an equal volume of acetonitrile+0.1% FA containing an internal standard (warfarine at 8 μM).
Analysis was conducted using a Waters Acquity UPLC System coupled to a Waters Xevo TQ triple quad mass spectrometer. UHPLC was conducted depending on the test compounds with a BEH C8 1.7 μm 100×2.1 mm or BEH C18 1.7 μm 50×2.1 mm or HSS T3 1.7 μm 50×2.1 mm columns heated at 45° C. or 50° C. and fitted with 2 μm insert filter pre-columns (available from Waters), and solvent systems A1 (H2O+0.1% FA) and B1 (acetonitrile+0.1% FA) at a flow rate of 0.6 mL/min and a 10-95% gradient of B1 over 1.9 min.
MS/MS was performed using electrospray ionization (ESI) interface in positive mode and specific MRM transitions for each tested compound.

[1] abbreviates: pH 5, 10 μM test compound, Cathepsin B 2 μg/mL, 25 mM MES buffer pH 5.0, 37° C., read-out: T1/2 Compound.
Where [2] appears, read: pH 5, text and figure legends, 10 μM test compound, read-out: t1/2 (Exo-Cat B-induced drug release study).
Where [3] appears, read: 10 μM test compound, Cathepsin B 2 μg/mL, 25 mM MES buffer pH 5.0, 37° C., read-out: T1/2 Compound.

`COc1cc2cc(c1Cl)N(C)C(=O)C[C@H](OC(=O)[C@H](C)N(C)C(=O)CCSC1CC(=O)N(CCC(=O)NCCCC[C@H](NC(=O)[C@H](CCCCN)NC(=O)[C@H](Cc3ccccc3)NC(=O)CCOCCOCCOCCOCCNC(=O)CCN3C(=O)CC(SC[C@H](NC(C)=O)C(=O)O)C3=O)C(=O)N[C@@H](Cc3ccccc3)C(=O)O)C1=O)[C@]1(C)O[C@H]1[C@H](C)[C@@H]1C[C@@](O)(NC(=O)O1)[C@H](OC)/C=C/C=C(\C)C2` (stereo partly drawn) [Compound 12, Ac-Cys-Mal-PEG4-Phe-Lys-Lys(Mal-DM1)-Phe-OH] ({X2-PEG4}-FKK(DM1Mal(CH2)2CO)F-OH): the half-life at 10 μM under setting [1] was 1.5 min and the half-life at 10 μM under setting [2] worked out at 1.53 min.
For the molecule `CC[C@@]1(OC(=O)NC[C@H](NC(=O)[C@H](CCCNC(=N)N)NC(=O)[C@H](Cc2ccccc2)NC(=O)CCOCCOCCOCCOCCOCCNC(=O)[C@@H](N)CCCNC(=N)N)C(=O)N[C@@H](Cc2ccccc2)C(=O)O)C(=O)OCc2c1cc1n(c2=O)Cc2cc3ccccc3nc2-1` [Compound 9, Arg-PEG4-Phe-Arg-Dap(CO-CPT)-Phe-OH] (H-R[PEG5]FR[Dap](Camptothecin(20S-OCO))F-OH; N-terminus assumed), the “Ratio (T1/2 Compound/T1/2 Reference)” value is 0.63. Further, the half-life at 10 μM under setting [1] was 4.5 min.
Take `CC[C@@]1(OC(=O)CN(C)C(=O)CC[C@H](NC(=O)[C@H](CCCNC(=N)N)NC(=O)[C@H](Cc2ccccc2)NC(=O)CCOCCOCCOCCOCCOCCNC(=O)[C@@H](N)CCCNC(=N)N)C(=O)N[C@@H](Cc2ccccc2)C(=O)O)C(=O)OCc2c1cc1n(c2=O)Cc2cc3ccccc3nc2-1` [Compound 8, Arg-PEG4-Phe-Arg-Glu(Sar-OCPT)-Phe-OH] (H-R[PEG5]FRE([Sar-X1])F-OH; N-terminus assumed): the “Cat B-induced cleavage, in words” value is reported as “rapidly cleaved” and the “Ratio (T1/2 Compound/T1/2 Reference)” value amounted to 0.19. In addition, the half-life at 10 μM under setting [1] was 2.2 min.
As for `COc1cc2cc(c1Cl)N(C)C(=O)C[C@H](OC(=O)[C@H](C)N(C)C(=O)CCSC1CC(=O)N(C[C@H]3CC[C@H](C(=O)NCCCC[C@H](NC(=O)[C@H](CCCNC(N)=O)NC(=O)[C@H](Cc4ccccc4)NC(=O)CCOCCOCCOCCOCCOCCNC(=O)CN4C(=O)CC(SC[C@H](NC(C)=O)C(=O)O)C4=O)C(=O)N[C@@H](Cc4ccc(O)cc4)C(=O)O)CC3)C1=O)[C@]1(C)O[C@H]1[C@H](C)[C@@H]1C[C@@](O)(NC(=O)O1)[C@H](OC)/C=C/C=C(\C)C2` (stereo partly drawn) [Compound 27, Ac-Cys-Ma-PEG5-Phe-Cit-Lys(Mcc-DM1)-Tyr-OH], the “Ratio (T1/2 Compound/T1/2 Reference)” value stood at 0.005 and the “cleavage rate compared to reference PABC compound (times faster)” value is reported as approximately 2300 fold. For the same molecule, under setting [1], the half-life at 10 μM came out at 0.06 min.
As for `CC[C@H](C)[C@@H]([C@@H](CC(=O)N1CCC[C@H]1[C@H](OC)[C@@H](C)C(=O)N[C@@H](Cc1ccccc1)C(=O)N[C@@H](CCCNC(N)=O)C(=O)N[C@@H](CCCCNC(=O)CCOCCOCCOCCOCCNC(=O)CCN1C(=O)CC(SC[C@H](NC(C)=O)C(=O)O)C1=O)C(=O)N[C@@H](Cc1ccccc1)C(=O)O)OC)N(C)C(=O)[C@@H](NC(=O)[C@H](C(C)C)N(C)C)C(C)C` (stereo partly drawn) [Compound 19, AF-Cit-Lys(PEG4-Mal-Cys-Ac)-Phe-OH] (NMe2Val-V[Dil][Dolaproine]F[Cit]K([PEG4-X2])F-OH), the “Ratio (T1/2 Compound/T1/2 Reference)” value was determined as 0.09. Further, under setting [1], the half-life at 10 μM was 1.1 min.
As for `CC[C@H](C)[C@@H]([C@@H](CC(=O)N1CCC[C@H]1[C@H](OC)[C@@H](C)C(=O)N[C@@H](Cc1ccccc1)C(=O)N[C@@H](CCCNC(N)=O)C(=O)N[C@@H](CCCCn1cc(COC(=O)NCCCC[C@H](NC(=O)CCOCCOCCOCCOCCOCCNC(=O)CCN2C(=O)CC(SC[C@H](NC(C)=O)C(=O)O)C2=O)C(=O)NCCOCCOCCOCCOCCOCCC(=O)N[C@@H](CCCCNC(=O)OCc2cn(CCCC[C@H](NC(=O)[C@H](CCCNC(N)=O)NC(=O)[C@H](Cc3ccccc3)NC(=O)[C@H](C)[C@@H](OC)[C@@H]3CCCN3C(=O)C[C@@H](OC)[C@H]([C@@H](C)CC)N(C)C(=O)[C@@H](NC(=O)[C@H](C(C)C)N(C)C)C(C)C)C(=O)N[C@@H](Cc3ccccc3)C(=O)O)nn2)C(=O)NCC(N)=O)nn1)C(=O)N[C@@H](Cc1ccccc1)C(=O)O)OC)N(C)C(=O)[C@@H](NC(=O)[C@H](C(C)C)N(C)C)C(C)C` (stereo partly drawn) [Compound 32, Ac-Cys-Mal-[PEG5-Lys(AF-Cit-Lys(Y)-Phe-OH)]2-Gly-NH2], the “Ratio (T1/2 Compound/T1/2 Reference)” value is reported as 0.06 and the “cleavage rate compared to reference PABC compound (times faster)” value is reported as approximately 20 fold. Also, under setting [3], the half-life at 10 μM stood at 0.98 min.
Regarding `CC[C@H](C)[C@@H]([C@@H](CC(=O)N1CCC[C@H]1[C@H](OC)[C@@H](C)C(=O)N[C@@H](Cc1ccccc1)C(=O)N[C@@H](CCCNC(=N)N)C(=O)N[C@@H](CCCCNC(=O)CCOCCOCCOCCOCCOCCNC(=O)CCN1C(=O)CC(SC[C@H](NC(C)=O)C(=O)O)C1=O)C(=O)N[C@@H](Cc1ccccc1)C(=O)O)OC)N(C)C(=O)[C@@H](NC(=O)[C@H](C(C)C)N(C)C)C(C)C` (stereo partly drawn) [Compound 1, AF-Arg-Lys(PEG4-Mal-Cys-Ac)-Phe-OH] (NMe2Val-V[Dil][Dolaproine]FRK([PEG5-X2])F-OH), the “Ratio (T1/2 Compound/T1/2 Reference)” value is listed as 0.12. Moreover, the half-life at 10 μM under setting [1] was 1.5 min.
For the molecule `COc1cc2cc(c1Cl)N(C)C(=O)C[C@H](OC(=O)[C@H](C)N(C)C(=O)CCSC1CC(=O)N(CCC(=O)NCCCC[C@H](NC(=O)[C@H](CCCCN)NC(=O)[C@H](Cc3ccccc3)NC(=O)CCOCCOCCOCCOCCNC(=O)CCN3C(=O)CC(SC[C@H](NC(C)=O)C(=O)O)C3=O)C(=O)N[C@@H](Cc3ccccc3)C(=O)N[C@@H](Cc3ccccc3)C(=O)N[C@@H](CCCCN)C(=O)O)C1=O)[C@]1(C)O[C@H]1[C@H](C)[C@@H]1C[C@@](O)(NC(=O)O1)[C@H](OC)/C=C/C=C(\C)C2` (stereo partly drawn) [Compound 28, Ac-Cys-Mal-PEG4-Phe-Lys-Lys(Mal-DM1)-Phe-Phe-Lys-OH] ({X2-PEG4}-FKK(DM1Mal(CH2)2CO)FFK-OH), the half-life at 10 μM under setting [3] is 0.3 min.
Regarding `CC[C@H](C)[C@@H]([C@@H](CC(=O)N1CCC[C@H]1[C@H](OC)[C@@H](C)C(=O)N[C@@H](Cc1ccccc1)C(=O)N[C@@H](CCCNC(N)=O)C(=O)N[C@@H](CCCCNC(=O)CCN1C(=O)CC(SCCC(=O)N(C)[C@@H](C)C(=O)O[C@H]2CC(=O)N(C)c3cc(cc(OC)c3Cl)C/C(C)=C/C=C/[C@@H](OC)[C@@]3(O)C[C@H](OC(=O)N3)[C@@H](C)[C@@H]3O[C@@]23C)C1=O)C(=O)N[C@@H](Cc1ccccc1)C(=O)N[C@@H](CCCCNC(=O)CCOCCOCCOCCOCCNC(=O)CCN1C(=O)CC(SC[C@H](NC(C)=O)C(=O)O)C1=O)C(=O)N[C@@H](Cc1ccccc1)C(=O)O)OC)N(C)C(=O)[C@@H](NC(=O)[C@H](C(C)C)N(C)C)C(C)C` (stereo partly drawn) [Compound 31, AF-Cit-Lys(Mal-DM1)-Phe-Lys(PEG4-Mal-Cys-Ac)-Phe-OH] (NMe2Val-V[Dil][Dolaproine]F[Cit]K(DM1Mal(CH2)2CO)FK([PEG4-X2])F-OH), the “Ratio (T1/2 Compound/T1/2 Reference)” value is 0.08 and the “cleavage rate compared to reference PABC compound (times faster)” value is reported as “more than 10 fold”. The half-life at 10 μM under setting [3] turned out to be 1.08 min.
In the case of `CC[C@H](C)[C@@H]([C@@H](CC(=O)N1CCC[C@H]1[C@H](OC)[C@@H](C)C(=O)N[C@@H](Cc1ccccc1)C(=O)NCCCC[C@H](NC(=O)[C@H](CCCCN)NC(=O)[C@H](Cc1ccccc1)NC(=O)CCOCCOCCOCCOCCNC(=O)CCN1C(=O)CC(SC[C@H](NC(C)=O)C(=O)O)C1=O)C(=O)N[C@@H](Cc1ccccc1)C(=O)O)OC)N(C)C(=O)[C@@H](NC(=O)[C@H](C(C)C)N(C)C)C(C)C` (stereo partly drawn) [Compound 13, Ac-Cys-Mal-PEG4-Phe-Lys-Lys(AF)-Phe-OH] (I: {X2-PEG4}-FKKF-OH / II: NMe2Val-V[Dil][Dolaproine]F; amide I:3-II:C), the “Ratio (T1/2 Compound/T1/2 Reference)” value was found to be 0.15. In addition, the half-life at 10 μM under setting [1] is 1.6 min. Also, under setting [2], the half-life at 10 μM came out at 1.62 min.
As to `CC[C@@]1(OC(=O)OC[C@H](NC(=O)[C@H](CCCNC(=N)N)NC(=O)[C@H](Cc2ccccc2)NC(=O)CCOCCOCCOCCOCCOCCNC(=O)[C@@H](N)CCCNC(=N)N)C(=O)N[C@@H](Cc2ccccc2)C(=O)O)C(=O)OCc2c1cc1n(c2=O)Cc2cc3ccccc3nc2-1` [Compound 11, Arg-PEG4-Phe-Arg-Ser(CO-CPT)-Phe-OH] (H-R[PEG5]FRS(Camptothecin(20S-OCO))F-OH; N-terminus assumed), the “Ratio (T1/2 Compound/T1/2 Reference)” value is 0.2. Moreover, the half-life at 10 μM under setting [1] came to 2.2 min.
